According to patent US7645781B2, “N-aryl-2-oxazolidinone-5-carboxamides and their derivatives” (Pfizer Inc, priority 2002, dated 2010):
In brackets after ≈: the same amount, converted by molar mass.

Assays:
[1] = test system: Staphylococcus aureus (SAUR 9213); test: MIC by standard agar dilution method; format: cell-based; settings: Mueller Hinton agar, incubated overnight at 35° C., read-out: MIC
Excerpt: The antibacterial agents of this invention have useful activity against a variety of organisms. The in vitro activity of compounds of this invention can be assessed by standard testing procedures such as the determination of minimum inhibitory concentration (MIC) by agar dilution as described in “Approved Standard. Methods for Dilution Antimicrobial Susceptibility Tests for Bacteria That Grow Aerobically”, 3rd. ed., published 1993 by the National Committee for Clinical Laboratory Standards, Villanova, Pa., USA. The in vitro MICs of test compounds are determined by a standard agar dilution method. A stock drug solution of each analog is prepared in the preferred solvent, usually DMSO:H2O (1:3). Serial 2-fold dilutions of each sample are made using 1.0 ml aliquots of sterile distilled water. To each 1.0 ml aliquot of drug is added 9 ml of molten Mueller Hinton agar medium. The drug-supplemented agar is mixed, poured into 15×100 mm petri dishes, and allowed to solidify and dry prior to inoculation. Vials of each of the test organisms are maintained frozen in the vapor phase of a liquid nitrogen freezer. Test cultures are grown overnight at 35° C. on the medium appropriate for the organism. Colonies are harvested with a sterile swab, and cell suspensions are prepared in Trypticase Soy broth (TSB) to equal the turbidity of a 0.5 McFarland standard. A 1:20 dilution of each suspension is made in TSB. The plates containing the drug supplemented agar are inoculated with a 0.001 ml drop of the cell suspension using a Steers replicator, yielding approximately 10^4 to 10^5 cells per spot. The plates are incubated overnight at 35° C. Following incubation the Minimum Inhibitory Concentration (MIC μg/ml), the lowest concentration of drug that inhibits visible growth of the organism, is read and recorded.

SMILES	MIC [1] [µg/mL]	melting point
CNC(=O)[C@H]1CN(c2ccc(N3CCOCC3)c(F)c2)C(=O)O1 [Example 2, (5R)-(−)-3-[3-Fluoro-4-(4-morpholinyl)phenyl]-N-methyl-2-oxo-5-oxazolidinecarboxamide]	8 (≈ 24.7 µM)	182 to 183 °C (dec.)
C=CCNC(=O)[C@H]1CN(c2ccc(N3CCOCC3)c(F)c2)C(=O)O1 [Example 3, (5R)-(−)-3-[3-Fluoro-4-(4-morpholinyl)phenyl]-N-allyl-2-oxo-5-oxazolidinecarboxamide]	8 (≈ 22.9 µM)	167 to 169 °C
CCCNC(=O)[C@H]1CN(c2ccc(N3CCOCC3)c(F)c2)C(=O)O1 [Example 4, (5R)-(−)-3-[3-Fluoro-4-(4-morpholinyl)phenyl]-N-propyl-2-oxo-5-oxazolidinecarboxamide]	16 (≈ 45.5 µM)	165 to 167 °C
CONC(=O)[C@H]1CN(c2ccc(N3CCOCC3)c(F)c2)C(=O)O1 [Example 5, (5R)-(−)-3-[3-Fluoro-4-(4-morpholinyl)phenyl]-N-methoxy-2-oxo-5-oxazolidinecarboxamide]	16 (≈ 47.2 µM)	206 to 208 °C (dec.)
O=C(NO)[C@H]1CN(c2ccc(N3CCOCC3)c(F)c2)C(=O)O1 [Example 6, (5R)-(−)-3-[3-Fluoro-4-(4-morpholinyl)phenyl]-N-hydroxy-2-oxo-5-oxazolidinecarboxamide]	16 (≈ 49.2 µM)	141 to 143 °C
NC(=O)[C@H]1CN(c2ccc(N3CCN(C(=O)CO)CC3)c(F)c2)C(=O)O1 [Example 14, (5R)-(−)-3-[3-Fluoro-4-[4-(hydroxyacetyl)-1-piperazinyl]phenyl]-2-oxo-5-oxazolidinecarboxamide]	4 (≈ 10.9 µM)	232 to 235 °C (dec.)
NC(=O)[C@H]1CN(c2cc(F)c(N3CCOCC3)c(F)c2)C(=O)O1 [Example 17, (5R)-(−)-3-[3,5-Difluoro-4-(4-morpholinyl)phenyl]-2-oxo-5-oxazolidinecarboxamide]	4 (≈ 12.2 µM)	181 to 183 °C
NC(=O)[C@H]1CN(c2ccc(N3CCS(=O)(=O)CC3)cc2)C(=O)O1 [Example 18, (5R)-(−)-3-[4-(Thiomorpholin-4-yl)phenyl]-2-oxo-5-oxazolidinecarboxamide S,S-dioxide]	16 (≈ 47.1 µM)	226 to 228 °C
NC(=O)[C@H]1CN(c2ccc(N3CCS(=O)(=O)CC3)c(F)c2)C(=O)O1 [Example 20, (5R)-(−)-3-[3-Fluoro-4-(thiomorpholin-4-yl)phenyl]-2-oxo-5-oxazolidinecarboxamide S,S-dioxide]	4 (≈ 11.2 µM)	245 to 247 °C (dec.)
NC(=O)[C@H]1CN(c2ccc(N3CC[S+]([O-])CC3)c(F)c2)C(=O)O1 [Example 21, (5R)-(−)-3-[3-Fluoro-4-(thiomorpholin-4-yl)phenyl]-2-oxo-5-oxazolidinecarboxamide S-oxide]	8 (≈ 23.4 µM)	264 to 266 °C (dec.)
NC(=O)[C@H]1CN(c2cc(F)c(N3CC[S+]([O-])CC3)c(F)c2)C(=O)O1 [Example 22, (5R)-(−)-3-[3,5-Difluoro-4-(thiomorpholin-4-yl)phenyl]-2-oxo-5-oxazolidinecarboxamide S-oxide]	4 (≈ 11.1 µM)	273 to 276 °C (dec.)
NC(=O)[C@H]1CN(c2ccc([C@H]3CC[S@@+]([O-])CC3)c(F)c2)C(=O)O1 [Example 23, (5R)-3-[3-Fluoro-4-(cis-tetrahydro-1-oxido-2H-thiopyran-4-yl)phenyl]-2-oxo-5-oxazolidinecarboxamide]	4 (≈ 11.8 µM)	279 to 281 °C (dec.)
NC(=O)[C@H]1CN(c2ccc(C3CCS(=O)(=O)CC3)cc2)C(=O)O1 [Example 25, (5R)-(−)-3-[4-(tetrahydro-2H-thiopyran-4-yl)phenyl]-2-oxo-5-oxazolidinecarboxamide S,S-dioxide]	8 (≈ 23.6 µM)	211 to 212 °C
NC(=O)[C@H]1CN(c2ccc([C@H]3CC[S@@+]([O-])CC3)cc2)C(=O)O1 [Example 26, (5R)-3-[4-(cis-tetrahydro-1-oxido-2H-thiopyran-4-yl)phenyl]-2-oxo-5-oxazolidinecarboxamide]	16 (≈ 49.6 µM)	269 to 273 °C (dec.)
NC(=O)[C@H]1CN(c2ccc([C@H]3CC[S@+]([O-])CC3)cc2)C(=O)O1 [Example 27, (5R)-3-[4-(trans-tetrahydro-1-oxido-2H-thiopyran-4-yl)phenyl]-2-oxo-5-oxazolidinecarboxamide]	8 (≈ 24.8 µM)	174 to 175 °C
NC(=O)[C@H]1CN(c2ccc(C3CCS(=O)(=O)CC3)c(F)c2)C(=O)O1 [Example 28, (5R)-3-[4-(Tetrahydro-2H-thiopyran-4-yl)-3-fluorophenyl]-2-oxo-5-oxazolidinecarboxamide S,S-dioxide]	–	231 to 234 °C (dec.)
CCn1c(=O)oc2cc(N3C[C@H](C(=O)NC)OC3=O)cc(F)c21 [Example 90, (5R)-3-(3-Ethyl-4-fluoro-2-oxo-2,3-dihydro-6-benzoxazolyl)-N-methyl-2-oxo-5-oxazolidinecarboxamide]	4 (≈ 12.4 µM)	–
CNC(=O)[C@H]1CN(c2cc(F)c3c(c2)oc(=O)n3C(C)C)C(=O)O1 [Example 91, (5R)-3-(4-Fluoro-3-isopropyl-2-oxo-2,3-dihydro-6-benzoxazolyl)-N-methyl-2-oxo-5-oxazolidinecarboxamide]	4 (≈ 11.9 µM)	–

The remaining lines, values ahead:

MIC [1] [µg/mL]	melting point	SMILES
4 (≈ 12.9 µM)	185 to 187 °C (dec.)	NC(=O)[C@H]1CN(c2ccc(N3CCOCC3)c(F)c2)C(=O)O1 [Example 1, (5R)-(−)-3-[3-Fluoro-4-(4-morpholinyl)phenyl]-2-oxo-5-oxazolidinecarboxamide]
2 (≈ 6.64 µM)	240 to 242 °C (dec.)	NC(=O)[C@H]1CN(c2ccc(-c3cccnc3)c(F)c2)C(=O)O1 [Example 7, (5R)-(−)-3-[4-(3-Pyridyl)-3-fluorophenyl]-2-oxo-5-oxazolidinecarboxamide]
1 (≈ 3.32 µM)	256 to 259 °C (dec.)	NC(=O)[C@H]1CN(c2ccc(-c3ccncc3)c(F)c2)C(=O)O1 [Example 8, (5R)-(−)-3-[4-(4-Pyridyl)-3-fluorophenyl]-2-oxo-5-oxazolidinecarboxamide]
4 (≈ 13.1 µM)	164 to 169 °C	NC(=O)[C@H]1CN(c2ccc(C3=CCOCC3)c(F)c2)C(=O)O1 [Example 9, (5R)-(−)-3-[4-(3,6-Dihydro-2H-pyran-4-yl)-3-fluorophenyl]-2-oxo-5-oxazolidinecarboxamide]
4 (≈ 13 µM)	153 to 156 °C	NC(=O)[C@H]1CN(c2ccc(C3CCOCC3)c(F)c2)C(=O)O1 [Example 10, (5R)-(−)-3-[4-(Tetrahydro-2H-pyran-4-yl)-3-fluorophenyl]-2-oxo-5-oxazolidinecarboxamide]
4 (≈ 11.8 µM)	182 to 184 °C (dec.)	NC(=O)[C@H]1CN(c2ccc(C3=CC[S+]([O-])CC3)c(F)c2)C(=O)O1 (stereo partly drawn) [Example 11, (5R)-3-[4-(3,6-Dihydro-2H-thiopyran-4-yl)-3-fluorophenyl]-2-oxo-5-oxazolidinecarboxamide S-oxide]
2 (≈ 5.64 µM)	206 to 208 °C	NC(=O)[C@H]1CN(c2ccc(C3=CCS(=O)(=O)CC3)c(F)c2)C(=O)O1 [Example 12, (5R)-(−)-3-[4-(3,6-Dihydro-2H-thiopyran-4-yl)-3-fluorophenyl]-2-oxo-5-oxazolidinecarboxamide S,S-dioxide]
2 (≈ 5.61 µM)	229 to 231 °C (dec.)	NC(=O)[C@H]1CN(c2ccc(C3CCS(=O)(=O)CC3)c(F)c2)C(=O)O1 [Example 13, (5R)-(−)-3-[4-(Tetrahydro-2H-thiopyran-4-yl)-3-fluorophenyl]-2-oxo-5-oxazolidinecarboxamide S,S-dioxide]
2 (≈ 5.33 µM)	245 to 248 °C (dec.)	NC(=O)[C@H]1CN(c2cc(F)c(N3CCS(=O)(=O)CC3)c(F)c2)C(=O)O1 [Example 15, (5R)-(−)-3-[4-(Thiomorpholin-4-yl)-3,5-difluorophenyl]-2-oxo-5-oxazolidinecarboxamide S,S-dioxide]
2 (≈ 5.88 µM)	201 to 203 °C	NC(=O)[C@H]1CN(c2ccc([C@H]3CC[S@+]([O-])CC3)c(F)c2)C(=O)O1 [Example 24, (5R)-3-[3-Fluoro-4-(trans-tetrahydro-1-oxido-2H-thiopyran-4-yl)phenyl]-2-oxo-5-oxazolidinecarboxamide]
1 (≈ 3.41 µM)	274 to 276 °C (dec.)	Cn1c(=O)sc2cc(N3C[C@H](C(N)=O)OC3=O)ccc21 [Example 29, (5R)-(−)-3-(2,3-Dihydro-3-methyl-2-oxo-6-benzothiazolyl)-2-oxo-5-oxazolidinecarboxamide]
1 (≈ 3.25 µM)	211 to 212.5 °C	CCn1c(=O)sc2cc(N3C[C@H](C(N)=O)OC3=O)ccc21 [Example 30, (5R)-(−)-3-(2,3-Dihydro-3-ethyl-2-oxo-6-benzothiazolyl)-2-oxo-5-oxazolidinecarboxamide]
